In BindingDB's records for doi:10.1021/jm9707028 (Boehringer Ingelheim Pharmaceuticals, 1998) one finds IC50 data, which are given here for 31 compounds.

Common to all, as to assay: HIV-1 RT Assay
Assay [1] addresses T1, Gag-Pol polyprotein [600-1027,R876K]/[600-1155] (Human immunodeficiency virus 1, UniProt P03366, R876K).
T1 construct: 600-1027; 600-1155

Assay [2] addresses T2, Gag-Pol polyprotein [600-1027,Y787L]/[600-1155,Y787L] (Human immunodeficiency virus 1, UniProt P03366, Y787L).
T2 construct: 600-1027; 600-1155

Assay [3] has as its target T3, Gag-Pol polyprotein [600-1027,Y780C]/[600-1155,Y780C] (Human immunodeficiency virus 1, UniProt P03366, Y780C).
T3 construct: 600-1027; 600-1155

`CCN1c2ncc(C(=O)O)cc2C(=O)N(C)c2cccnc21` [2-ethyl-9-methyl-10-oxo-2,4,9,15-tetraazatricyclo[9.4.0.0^{3,8}]pentadeca-1(11),3,5,7,12,14-hexaene-13-carboxylic acid] yielded an IC50 in assay [1] (pH 7.8, 22 °C) greater than 1 µM.

Turning to `CCN1c2ncc(CCc3cccc(C)c3)cc2C(=O)N(C)c2ccc(Cl)nc21` [5-chloro-2-ethyl-9-methyl-13-[2-(3-methylphenyl)ethyl]-2,4,9,15-tetraazatricyclo[9.4.0.0^{3,8}]pentadeca-1(15),3(8),4,6,11,13-hexaen-10-one], the IC50 in assay [2] is greater than 1 µM.

In assay [2], `CCN1c2ncc(CCc3cccc(N=[N+]=[N-])c3)cc2C(=O)N(C)c2ccc(Cl)nc21` [13-[2-(3-azidophenyl)ethyl]-5-chloro-2-ethyl-9-methyl-2,4,9,15-tetraazatricyclo[9.4.0.0^{3,8}]pentadeca-1(15),3(8),4,6,11,13-hexaen-10-one] showed an IC50 greater than 1 µM.

In assay [2], `CCN1c2ncc(CCc3ccc(C)cc3)cc2C(=O)N(C)c2ccc(Cl)nc21` [5-chloro-2-ethyl-9-methyl-13-[2-(4-methylphenyl)ethyl]-2,4,9,15-tetraazatricyclo[9.4.0.0^{3,8}]pentadeca-1(15),3(8),4,6,11,13-hexaen-10-one] had an IC50 greater than 1 µM.

Regarding `CCN1c2ncc(CCc3cccc(N)c3)cc2C(=O)N(C)c2cccnc21` [13-[2-(3-aminophenyl)ethyl]-2-ethyl-9-methyl-2,4,9,15-tetraazatricyclo[9.4.0.0^{3,8}]pentadeca-1(15),3(8),4,6,11,13-hexaen-10-one], in assay [2], the IC50 is greater than 1 µM.

In the case of `CCN1c2ncc(C)cc2C(=O)N(C)c2cccnc21` [2-ethyl-9,13-dimethyl-2,4,9,15-tetraazatricyclo[9.4.0.0^{3,8}]pentadeca-1(11),3,5,7,12,14-hexaen-10-one], the IC50 in assay [3] (pH 7.8, 22 °C) was greater than 1 µM.

On to `CCN1c2ncc(/C=C/c3ccncc3)cc2C(=O)N(C)c2cccnc21` [5,11-Dihydro-11-ethyl-5-methyl-8-[trans-2-(4-pyridyl)ethen-1-yl]-6H-dipyrido[3,2-b:2 ,3-e][1,4]diazepin-6-one], for which the IC50 in assay [3] was greater than 1 µM.

In turn, `CCN1c2ncc(CCc3nccs3)cc2C(=O)N(C)c2cccnc21` [2-ethyl-9-methyl-13-[2-(1,3-thiazol-2-yl)ethyl]-2,4,9,15-tetraazatricyclo[9.4.0.0^{3,8}]pentadeca-1(11),3,5,7,12,14-hexaen-10-one] showed an IC50 in assay [2] greater than 1 µM.

Turning to `CCN1c2ncc(CCc3ccccc3N)cc2C(=O)N(C)c2cccnc21` [13-[2-(2-aminophenyl)ethyl]-2-ethyl-9-methyl-2,4,9,15-tetraazatricyclo[9.4.0.0^{3,8}]pentadeca-1(15),3(8),4,6,11,13-hexaen-10-one], the half-maximal inhibitory concentration (IC50) in assay [2] was greater than 1 µM.

On to `CCN1c2ncc(CCc3ccnc(C(=O)O)c3)cc2C(=O)N(C)c2ccc(Cl)nc21` [2-Chloro-5,11-dihydro-11-ethyl-5-methyl-8-[2-(2-carboxypyrid-4-yl)ethyl]-6H-dipyrido[3,2-b:2 ,3-e][1,4]diazepin-6-one], for which the IC50 in assay [2] is greater than 1 µM.

On to `CCN1c2ncc(Cl)cc2C(=O)N(C)c2cccnc21` [13-chloro-2-ethyl-9-methyl-2,4,9,15-tetraazatricyclo[9.4.0.0^{3,8}]pentadeca-1(11),3,5,7,12,14-hexaen-10-one], for which the IC50 in assay [3] (pH 7.8, 22 °C) is greater than 1 µM.

Regarding `CCN1c2ncc(CCc3cncnc3)cc2C(=O)N(C)c2cccnc21` [2-ethyl-9-methyl-13-[2-(pyrimidin-5-yl)ethyl]-2,4,9,15-tetraazatricyclo[9.4.0.0^{3,8}]pentadeca-1(11),3,5,7,12,14-hexaen-10-one], the IC50 in assay [3] and in assay [2] was greater than 1 µM each time.

In assay [1] (pH 7.8, 22 °C), `CCN1c2ncc(N)cc2C(=O)N(C)c2cccnc21` [13-amino-2-ethyl-9-methyl-2,4,9,15-tetraazatricyclo[9.4.0.0^{3,8}]pentadeca-1(11),3,5,7,12,14-hexaen-10-one] had an IC50 of 0.1 µM.

In assay [2], `CCN1c2ncc(CCc3cccc(C)c3)cc2C(=O)N(C)c2cccnc21` [2-ethyl-9-methyl-13-[2-(3-methylphenyl)ethyl]-2,4,9,15-tetraazatricyclo[9.4.0.0^{3,8}]pentadeca-1(11),3,5,7,12,14-hexaen-10-one] came in with an IC50 greater than 1 µM.

Turning to `CCN1c2ncc(-c3cccc(OC)c3)cc2C(=O)N(C)c2cccnc21` [2-ethyl-13-(3-methoxyphenyl)-9-methyl-2,4,9,15-tetraazatricyclo[9.4.0.0^{3,8}]pentadeca-1(11),3,5,7,12,14-hexaen-10-one], the IC50 was greater than 1 µM in assay [3] (pH 7.8, 22 °C) and greater than 1 µM in assay [1] (pH 7.8, 22 °C).

`CCN1c2ncc(CCc3ccnc(CO)c3)cc2C(=O)N(C)c2ccc(Cl)nc21` [5-chloro-2-ethyl-13-{2-[2-(hydroxymethyl)pyridin-4-yl]ethyl}-9-methyl-2,4,9,15-tetraazatricyclo[9.4.0.0^{3,8}]pentadeca-1(15),3(8),4,6,11,13-hexaen-10-one] yielded an IC50 in assay [2] greater than 1 µM.

In the case of `CCN1c2ncc(CCc3ccnc(C)c3)cc2C(=O)N(C)c2cccnc21` [2-ethyl-9-methyl-13-[2-(2-methylpyridin-4-yl)ethyl]-2,4,9,15-tetraazatricyclo[9.4.0.0^{3,8}]pentadeca-1(15),3(8),4,6,11,13-hexaen-10-one], the IC50 in assay [2] is greater than 1 µM.

On to `CCN1c2ncc(CCc3ccccc3C)cc2C(=O)N(C)c2ccc(Cl)nc21` [5-chloro-2-ethyl-9-methyl-13-[2-(2-methylphenyl)ethyl]-2,4,9,15-tetraazatricyclo[9.4.0.0^{3,8}]pentadeca-1(15),3(8),4,6,11,13-hexaen-10-one], for which the IC50 in assay [3], in assay [1] and in assay [2] was greater than 1 µM throughout.

Turning to `CCN1c2ncc(CCc3ccc(C)cc3)cc2C(=O)N(C)c2cccnc21` [2-ethyl-9-methyl-13-[2-(4-methylphenyl)ethyl]-2,4,9,15-tetraazatricyclo[9.4.0.0^{3,8}]pentadeca-1(11),3,5,7,12,14-hexaen-10-one], the results for the IC50 in assay [1] and in assay [2] were 0.1 µM and greater than 1 µM, respectively.

In the case of `CCN1c2ncc(CCc3ccc4ccccc4c3)cc2C(=O)N(C)c2cccnc21` [2-ethyl-9-methyl-13-[2-(naphthalen-2-yl)ethyl]-2,4,9,15-tetraazatricyclo[9.4.0.0^{3,8}]pentadeca-1(15),3(8),4,6,11,13-hexaen-10-one], the IC50 in assay [2] was greater than 1 µM.

Take `CCN1c2ncc(CCc3ccccc3C)cc2C(=O)N(C)c2cccnc21` [2-ethyl-9-methyl-13-[2-(2-methylphenyl)ethyl]-2,4,9,15-tetraazatricyclo[9.4.0.0^{3,8}]pentadeca-1(11),3,5,7,12,14-hexaen-10-one]: the IC50 in assay [2] is greater than 1 µM.

As for `CCN1c2ncc(CCc3cccnc3)cc2C(=O)N(C)c2cccnc21` [2-ethyl-9-methyl-13-[2-(pyridin-3-yl)ethyl]-2,4,9,15-tetraazatricyclo[9.4.0.0^{3,8}]pentadeca-1(11),3,5,7,12,14-hexaen-10-one], the IC50 in assay [1] is 0.03 µM; in assay [2] it was greater than 1 µM.

As for `CCN1c2ncc(CCc3ccc(N)cc3)cc2C(=O)N(C)c2cccnc21` [13-[2-(4-aminophenyl)ethyl]-2-ethyl-9-methyl-2,4,9,15-tetraazatricyclo[9.4.0.0^{3,8}]pentadeca-1(15),3(8),4,6,11,13-hexaen-10-one], in assay [2], the IC50 was greater than 1 µM.

Compound `CCN1c2ncc(/C=C/C(=O)OC)cc2C(=O)N(C)c2cccnc21` [methyl (2E)-3-{2-ethyl-9-methyl-10-oxo-2,4,9,15-tetraazatricyclo[9.4.0.0^{3,8}]pentadeca-1(11),3,5,7,12,14-hexaen-13-yl}prop-2-enoate] came in with an IC50 in assay [1] (pH 7.8, 22 °C) greater than 1 µM.

`CCN1c2ncc(CCc3ccc(N)cc3)cc2C(=O)N(C)c2ccc(Cl)nc21` [13-[2-(4-aminophenyl)ethyl]-5-chloro-2-ethyl-9-methyl-2,4,9,15-tetraazatricyclo[9.4.0.0^{3,8}]pentadeca-1(15),3(8),4,6,11,13-hexaen-10-one] came in with an IC50 in assay [2] greater than 1 µM.

On to `CCN1c2ncc(CCc3ccc(NS(C)(=O)=O)cc3)cc2C(=O)N(C)c2ccc(Cl)nc21` [N-[4-(2-{5-chloro-2-ethyl-9-methyl-10-oxo-2,4,9,15-tetraazatricyclo[9.4.0.0^{3,8}]pentadeca-1(15),3(8),4,6,11,13-hexaen-13-yl}ethyl)phenyl]methanesulfonamide], for which the IC50 in assay [2] was greater than 1 µM.

For the compound `CCN1c2ncc(CCc3cccc(NS(C)(=O)=O)c3)cc2C(=O)N(C)c2ccc(Cl)nc21` [N-[3-(2-{5-chloro-2-ethyl-9-methyl-10-oxo-2,4,9,15-tetraazatricyclo[9.4.0.0^{3,8}]pentadeca-1(15),3(8),4,6,11,13-hexaen-13-yl}ethyl)phenyl]methanesulfonamide], the IC50 in assay [2] was greater than 1 µM.

In assay [2], `CCN1c2ncc(CCc3ccncc3)cc2C(=O)N(C)c2ccc(C#N)nc21` [2,8-Disubstituted Dipyridodiazepinone 38] gave an IC50 greater than 1 µM.

In assay [2], `CCN1c2ncc(CCc3ccc4ccccc4c3)cc2C(=O)N(C)c2ccc(Cl)nc21` [5-chloro-2-ethyl-9-methyl-13-[2-(naphthalen-2-yl)ethyl]-2,4,9,15-tetraazatricyclo[9.4.0.0^{3,8}]pentadeca-1(15),3(8),4,6,11,13-hexaen-10-one] returned an IC50 greater than 1 µM.

As for `CCN1c2ncc(CCc3ccccn3)cc2C(=O)N(C)c2cccnc21` [2-ethyl-9-methyl-13-[2-(pyridin-2-yl)ethyl]-2,4,9,15-tetraazatricyclo[9.4.0.0^{3,8}]pentadeca-1(11),3,5,7,12,14-hexaen-10-one], the concentration for half-maximal inhibition (IC50) in assay [3] and in assay [2] was greater than 1 µM in each case.

As for `CCN1c2ncc(CCc3ccc4ccccc4c3)cc2C(=O)N(C)c2ccc(F)nc21` [2-ethyl-5-fluoro-9-methyl-13-[2-(naphthalen-2-yl)ethyl]-2,4,9,15-tetraazatricyclo[9.4.0.0^{3,8}]pentadeca-1(15),3(8),4,6,11,13-hexaen-10-one], in assay [2], the IC50 was greater than 1 µM.
